Like-named read-outs stand apart in the source and are kept apart here.
Columns and labels:
Human CCR5 receptor = biological target: T1, Human CCR5 receptor (Homo sapiens, UniProt P51681); experiment: Human CCR5 receptor-ligand binding assay (125I chemokine displacement on CHO-Gα16-hCCR5 cells); details: RT 2 h
T1 construct: expressed in transfected cells
Description: Human CCR5 Receptor-Ligand Binding Assay Protocol
Human CCR5 receptor (Genebank ID: 29169292) was cloned into mammalian expression vector, pTarget (Promega). The construct was transfected into CHO-Gα16 cells by using Fugene Reagent (Roche). Clones were selected under antibiotic pressure (G418 and Hygromycin) and sorted 4 times with a fluorescence activates cell sorter and a monoclonal antibody specific for CCR5 receptor (BD Biosciences Pharmigen, Mab 2D7, Cat. No. 555993). The clone with highest expression (100,000 copies per cell) was chosen for the binding assays.
Adherent cells in […] tissue culture flask (˜90% confluent) were harvested using 1 mM EDTA in PBS (phosphate-buffered saline) without Ca^2+ and Mg^2+. Cells were washed twice with PBS containing no Ca^2+ and Mg^2+. CHO-Gα16-hCCR5 cells were then resuspended (1×10^6/ml) in ice cold binding buffer (50 mM HEPES, 1 mM CaCl2, 5 mM MgCl2, 0.5% BSA, 0.05% NaN3, pH 7.24), pH 7.4), supplemented with freshly made 0.5% BSA and 0.05% NaN3.
Eighty μl CHO-Gα16-hCCR5 (1×10^6/ml) cells were added to 96 well plates. All dilutions were made in binding buffer (50 mM HEPES, 1 mM CaCl2, 5 mM MgCl2, 0.5% BSA, 0.05% NaN3, pH 7.24).
The plates were incubated on a cell shaker at RT for 2 h with a final concentration of 0.1 nM ^125I RANTES or ^125I MIP-1α or ^125I MIP-1β. The compound dilutions were made in PBS, 1% BSA. Total reaction volume was 100 μl per well. The test compounds were added to the cells prior to the addition of radioligand.
After incubation, the cells were harvested onto GF/C filter plates using Packard cell harvester. Filters were pretreated with 0.3% PEI/0.2% BSA for 30 min. The filter plate was washed rapidly 5 times with 25 mM HEPES, 500 mM NaCl, 1 mM CaCl2 and 5 mM MgCl2 adjusted to pH 7.1. Plates were dried in oven (70° C.) for 20 min, added with 40 μl scintillation fluid and sealed with Packard TopSeal-A. Packard Top Count was used to measure of the radioactivity for 1 min per well.
Total binding was determined with control wells added with radioisotope and buffer and the non-specific binding was determined using an excess cold RANTES to some of the control wells. Specific binding was determined by subtracting the non-specific form total binding. Results are expressed as the percentage of specific ^125I RANTES binding. IC50 values were determined using varying concentrations of the test ligand in triplicates and the data was analyzed using GraphPad Prism (GraphPad, San Diego, Calif.).

[1] = 0.1 nM 125I MIP-1β, read-out: Binding IC50 Mip-1b
[2] = 0.1 nM 125I RANTES, read-out: Binding IC50 RANTES
[3] = 0.1 nM 125I MIP-1α, read-out: Binding IC50 Mip-1a

T1 sequence (P51681 whole entry): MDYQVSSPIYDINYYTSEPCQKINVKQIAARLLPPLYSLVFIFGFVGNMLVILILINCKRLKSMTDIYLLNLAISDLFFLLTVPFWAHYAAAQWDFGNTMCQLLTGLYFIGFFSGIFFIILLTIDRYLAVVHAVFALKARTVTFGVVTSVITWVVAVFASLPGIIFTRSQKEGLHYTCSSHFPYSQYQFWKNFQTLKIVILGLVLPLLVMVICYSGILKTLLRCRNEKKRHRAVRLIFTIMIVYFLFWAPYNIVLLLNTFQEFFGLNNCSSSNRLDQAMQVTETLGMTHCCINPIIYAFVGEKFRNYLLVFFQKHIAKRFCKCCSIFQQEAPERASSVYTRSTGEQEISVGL

4-Butyl-8-[1-(2,6-dimethyl-benzoyl)-piperidin-4-yl]-3-(2-methyl-butyl)-1-oxa-3,8-diaza-spiro[4.5]decan-2-one; compound with trifluoro-acetic acid [Compound I-90]
IC50 (Human CCR5 receptor; [1]): 1.8 nM
IC50 (Human CCR5 receptor; [2]): 5.1 nM

CCCCC1N(CC2CCCCC2)C(=O)OC12CCN(C1CCN(C(=O)c3c(C)cccc3C)CC1)CC2 (stereo not shown) [Compound I-1, 4-Butyl-3-cyclohexylmethyl-8-[1-(2,6-dimethyl-benzoyl)-piperidin-4-yl]-1-oxa-3,8-diaza-spiro[4.5]decan-2-one]
IC50 (Human CCR5 receptor; [3]): 18 nM
IC50 (Human CCR5 receptor; [1]): 13 nM
IC50 (Human CCR5 receptor; [2]): 14 nM

CCCCN1C(=O)C([C@@H](O)C2CCCCC2)NC(=O)C12CCN(C1CCN(C(=O)c3c(C)cccc3C)CC1)CC2 (stereo partly drawn) [Compound I-76, 1-Butyl-3-((S)-cyclohexyl-hydroxy-methyl)-9-[1-(2,6-dimethyl-benzoyl)-piperidin-4-yl]-1,4,9-triaza-spiro[5.5]undecane-2,5-dione]
melting point: 246.9 to 248 °C

CCCC[C@@H]1N(CC2CCCCC2)C(=O)OC12CCN(C1CCN(C(=O)c3c(C)cccc3C)CC1)CC2 [Compound I-159, (S)-4-Butyl-3-cyclohexylmethyl-8-[1-(2,6-dimethyl-benzoyl)-piperidin-4-yl]-1-oxa-3,8-diaza-spiro[4.5]decan-2-one]
IC50 (Human CCR5 receptor; [3]): 4.5 nM
IC50 (Human CCR5 receptor; [1]): 10.5 nM
IC50 (Human CCR5 receptor; [2]): 5.1 nM

CCCCC1N(CC2CCCCC2)C(=O)OC12CCN(C1(C)CCN(C(=O)c3c(C)ncnc3C)CC1)CC2 (stereo not shown) [Compound I-212, 4-Butyl-3-cyclohexylmethyl-8-[1-(4,6-dimethyl-pyrimidine-5-carbonyl)-4-methyl-piperidin-4-yl]-1-oxa-3,8-diaza-spiro[4.5]decan-2-one; compound with trifluoro-acetic acid]
IC50 (Human CCR5 receptor; [2]): 7.3 nM

CCCCC1N(CC2CCCCC2)C(=O)OC12CCN(C1(C)CCN(C(=O)c3c(C)nn(Cc4ccccc4)c3C)CC1)CC2 (stereo not shown) [Compound I-214, 8-[1-(1-Benzyl-3,5-dimethyl-1H-pyrazole-4-carbonyl)-4-methyl-piperidin-4-yl]-4-butyl-3-cyclohexylmethyl-1-oxa-3,8-diaza-spiro[4.5]decan-2-one; compound with trifluoro-acetic acid]
IC50 (Human CCR5 receptor; [2]): 8.2 nM

CCCCC1CN(CC2CCOCC2)C(=O)OC12CCN(C1(C)CCN(C(=O)c3c(C)ncnc3C)CC1)CC2 (stereo not shown) [Compound I-415, 5-Butyl-9-[1-(4,6-dimethyl-pyrimidine-5-carbonyl)-4-methyl-piperidin-4-yl]-3-(tetrahydro-pyran-4-ylmethyl)-1-oxa-3,9-diaza-spiro[5.5]undecan-2-one; compound with trifluoro-acetic acid]
IC50 (Human CCR5 receptor; [1]): < 1.5 nM
IC50 (Human CCR5 receptor; [2]): 7.7 nM

Reference: patent US7538122B2, “Heterocyclic antiviral compounds” (Roche Palo Alto LLC, priority 2004, dated 2009)
